Assay results as given in PubChem BioAssay AID1259407 (Chemical Carcinogenesis Research Information System (CCRIS), 2018).
Activity calls are given as the source filed them. How the calls were made is not given here.

Tested on: CCRIS mutagenicity, Ames/micronucleus/aberration tests
Assay: CCRIS mutagenicity studies
[1] = Test System: AMES SALMONELLA TYPHIMURIUM, Strain/Indicator: TA98, Metabolic Activation: NONE, Method: STANDARD PLATE
[2] = Test System: AMES SALMONELLA TYPHIMURIUM, Strain/Indicator: TA100, Metabolic Activation: NONE, Method: STANDARD PLATE

Measured: mutagenic call

O=[N+]([O-])c1ccc(N=Nc2ccc(N(CCO)CCO)cc2)c([N+](=O)[O-])c1
active: [1] active; positive | Test System: AMES SALMONELLA TYPHIMURIUM, Strain/Indicator: TA98, Metabolic Activation: RAT, LIVER, S-9, AROCLOR 1254, Method: STANDARD PLATE active; positive | [2] active; positive | Test System: AMES SALMONELLA TYPHIMURIUM, Strain/Indicator: TA100, Metabolic Activation: RAT, LIVER, S-9, AROCLOR 1254, Method: STANDARD PLATE active; positive | Test System: AMES SALMONELLA TYPHIMURIUM, Strain/Indicator: TA1535, Metabolic Activation: NONE, Method: STANDARD PLATE active; positive | Test System: AMES SALMONELLA TYPHIMURIUM, Strain/Indicator: TA1535, Metabolic Activation: RAT, LIVER, S-9, AROCLOR 1254, Method: STANDARD PLATE active; positive | Test System: AMES SALMONELLA TYPHIMURIUM, Strain/Indicator: TA1537, Metabolic Activation: NONE, Method: STANDARD PLATE active; positive | Test System: AMES SALMONELLA TYPHIMURIUM, Strain/Indicator: TA1537, Metabolic Activation: RAT, LIVER, S-9, AROCLOR 1254, Method: STANDARD PLATE active; positive | Test System: AMES SALMONELLA TYPHIMURIUM, Strain/Indicator: TA1538, Metabolic Activation: NONE, Method: STANDARD PLATE active; positive | Test System: AMES SALMONELLA TYPHIMURIUM, Strain/Indicator: TA1538, Metabolic Activation: RAT, LIVER, S-9, AROCLOR 1254, Method: STANDARD PLATE active; positive | Test System: CHINESE HAMSTER V-79, Strain/Indicator: V-79 (HGPRT)/6-THIOGUANINE, Metabolic Activation: RAT, LIVER, S-9, AROCLOR 1254 active; positive
inactive: Test System: CHINESE HAMSTER V-79, Strain/Indicator: V-79/6-THIOGUANINE, Metabolic Activation: NONE inactive; negative | Test System: UDS RAT HEPATOCYTES, Strain/Indicator: THY INCORP, Metabolic Activation: NONE, Method: AUTORADIOGRAPHY inactive; negative

Cc1occc(=O)c1O
inactive: Test System: AMES SALMONELLA TYPHIMURIUM, Strain/Indicator: TA92, Metabolic Activation: NONE, Method: STANDARD PLATE inactive; negative | Test System: AMES SALMONELLA TYPHIMURIUM, Strain/Indicator: TA97, Metabolic Activation: NONE, Method: PREINCUBATION inactive; negative | Test System: AMES SALMONELLA TYPHIMURIUM, Strain/Indicator: TA97, Metabolic Activation: RAT, LIVER, S-9, AROCLOR 1254, Method: PREINCUBATION inactive; negative | [1] inactive; negative | [2] inactive; negative | Test System: AMES SALMONELLA TYPHIMURIUM, Strain/Indicator: TA102, Metabolic Activation: NONE, Method: PREINCUBATION inactive; negative | Test System: AMES SALMONELLA TYPHIMURIUM, Strain/Indicator: TA102, Metabolic Activation: RAT, LIVER, S-9, AROCLOR 1254, Method: PREINCUBATION inactive; negative | Test System: AMES SALMONELLA TYPHIMURIUM, Strain/Indicator: TA104, Metabolic Activation: NONE, Method: STANDARD PLATE inactive; negative
active: End Point: IN VIVO MICRONUCLEUS, Test System: BONE MARROW POLYCHROMATIC ERYTHROCYTES, Species: MOUSE, Strain/Sex: DDY/MALE, Route: IP active; positive

CCN(CC)C(=S)SSC[C@H](NC(=O)CC[C@H](N)C(=O)O)C(=O)NCC(=O)O
inactive: Test System: AMES SALMONELLA TYPHIMURIUM, Strain/Indicator: TA98, Metabolic Activation: NONE, Method: PREINCUBATION inactive; negative | Test System: AMES SALMONELLA TYPHIMURIUM, Strain/Indicator: TA98, Metabolic Activation: RAT, LIVER, S-9, AROCLOR 1254, Method: PREINCUBATION inactive; negative | Test System: AMES SALMONELLA TYPHIMURIUM, Strain/Indicator: TA100, Metabolic Activation: NONE, Method: PREINCUBATION inactive; negative | Test System: AMES SALMONELLA TYPHIMURIUM, Strain/Indicator: TA100, Metabolic Activation: RAT, LIVER, S-9, AROCLOR 1254, Method: PREINCUBATION inactive; negative

C[C@]12CCC(=O)C=C1CC[C@@H]1[C@@H]2[C@@H](O)C[C@@]2(C)[C@H]1CC[C@]2(O)C(=O)CO
active: End Point: IN VITRO CHROMOSOMAL ABERRATIONS, Test System: HUMAN PERIPHERAL BLOOD LYMPHOCYTES, Metabolic Activation: NONE active; positive
inactive: Test System: UDS RAT HEPATOCYTES, Strain/Indicator: THY INCORP (18-20 HR), Metabolic Activation: NONE, Method: LIQUID SCINTILLATION COUNTING inactive; negative

CCN(CC)c1ccc(N=Nc2sc(C=O)c(Cl)c2C#N)c(NC(=O)COC)c1
inactive: End Point: IN VITRO CHROMOSOMAL ABERRATIONS, Test System: CHL CELLS, Metabolic Activation: RAT, LIVER, S-9, SODIUM PHENOBARBITAL AND 5,6-BENZOFLAVONE inactive; negative; precipitation occurred at all doses
